“Also recorded” adds a separate entry of the source.
Assays:
[1] = test system: PBP3; assay: Inhibition by mecillinam of binding of 14C-penicillin G to PBPs in membrane fraction (SDS-PAGE, image analyzer); set-up: species or system Brevibacterium lactofermentum; conditions: mecillinam added at various concentrations before the penicillin binding reaction; membrane fraction of ATCC 13869
Description: PBP is considered to be a membrane protein. A membrane fraction of a coryneform bacterium was prepared as follows. A wild strain of coryneform bacteria, Brevibacterium lactofermentum ATCC 13869 strain, was inoculated to 20 ml of A medium (containing 10 g of polypeptone, 5 g of yeast extract, 5 g of NaCl and 5 g of glucose in 1 L of water), cultured at 30° C. with shaking, and harvested when the absorption at 660 nm reached about 1.0. The cells were washed in […] sodium phosphate buffer, pH 7.0. Then, the buffer was added with glass beads and sonicated to disrupt the cells. […] Protein concentration of this membrane fraction was determined by using a protein quantification kit (produced by PIERCE, Micro BCA Protein assay kit), and found to be 4 mg/ml.
A volume of 30 μl of the prepared membrane fraction was added with 3 μl of ^14C-penicillin G (produced by Amersham) and allowed to react at 30° C. for 10 minutes. […] A sample of this fraction was subjected to SDS-PAGE using gel containing 10% of polyacrylamide, and the gel was fixed, dried and analyzed with an image analyzer BAS2000 produced by Fuji Photo Film Co., Ltd. As a result, three bands were detected at 110 kDa, 100 kDa and 60 kDa, and designated as PBP1, PBP2 and PBP3, respectively. […]

[2] = test system: Brevibacterium lactofermentum ATCC 13869; assay: Glutamic acid production by coryneform bacterium induced by addition of mecillinam; assay type: cell-based; conditions: A medium, 30° C., added after 2 hours, further cultured 8 hours
Description: The Brevibacterium lactofermentum ATCC 13869 strain was inoculated to the aforementioned A medium, cultured at 30° C. for 2 hours with shaking, then added with 0.01 μM to 100 μM of mecillinam, and further cultured for 8 hours with shaking. Subsequently, glutamic acid concentration in the medium was measured by using Biotech Analyzer AS210 (produced by Asahi Chemical Industry Co., Ltd.) (Table 1).

For CC1(C)S[C@@H]2[C@H](/N=C/N3CCCCCC3)C(=O)N2[C@H]1C(=O)O [mecillinam], the “inhibition of binding of PBP with isotope (14C) labeled penicillin G / selectivity among PBP1, PBP2, PBP3” value [1] was “only PBP3 was inhibited; also recorded: selectively binds to PBP3”, the “Concentration of L-glutamic acid” value ([2]; 0.1 μM added mecillinam) was 0 mg/L and the “Concentration of L-glutamic acid” value ([2]; 1.0 μM added mecillinam) was 0 mg/L. For the same compound, the “Concentration of L-glutamic acid” value ([2]; 10 μM added mecillinam) was 0 mg/L and the “Concentration of L-glutamic acid” value ([2]; 100 μM added mecillinam) was 575 mg/L.

Source: patent US7033802B1, “Penicillin binding protein gene and process for producing L-glutamic acid” (Ajinomoto Co., Inc., priority 1998, dated 2006)
